Experimental findings from ChEMBL document CHEMBL1201862, “PubChem BioAssay data set” (2004) are described below.

Each structure is given as a SMILES string. Active and inactive are the calls of the source. Where only a bound is given, the exact number is not on record here.

Experiment [1] deals with Sphingosine 1-phosphate receptor 2 (Homo sapiens, UniProt O95136). The experiment in a line: Dose Response Cell Based Assay for Agonists of the S1P2 Receptor of Purchased Analogues. [Related pubchem assays: 729, 843, 854, 736 ]. Type of experiment: functional.
In experiment [2] the target is Solute carrier family 12 member 2/member 5 (Homo sapiens, UniProt P55011+Q9H2X9). The experiment in a line: KCC2 and NKCC1 inhibition by rubidium flux, cell-based, NKCC1 counter-screen (AID 1734). Type of experiment: functional, HEK293.
For experiment [3], the target named is T1, Corticotropin-releasing factor receptor 2/Corticotropin-releasing factor-binding protein (Homo sapiens, UniProt P24387+Q13324).
T1 sequence (Q13324 whole entry): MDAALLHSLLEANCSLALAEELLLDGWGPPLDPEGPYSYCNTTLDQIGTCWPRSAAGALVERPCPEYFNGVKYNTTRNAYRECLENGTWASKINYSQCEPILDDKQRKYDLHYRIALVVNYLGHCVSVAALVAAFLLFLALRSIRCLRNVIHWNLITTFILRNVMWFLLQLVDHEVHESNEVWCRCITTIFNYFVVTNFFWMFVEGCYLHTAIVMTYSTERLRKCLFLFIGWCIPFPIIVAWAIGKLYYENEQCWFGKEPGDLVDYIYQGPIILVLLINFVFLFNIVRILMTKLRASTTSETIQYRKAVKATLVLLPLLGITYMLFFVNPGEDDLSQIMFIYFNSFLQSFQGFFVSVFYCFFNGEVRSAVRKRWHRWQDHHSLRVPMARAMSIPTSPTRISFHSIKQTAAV
T1 sequence (P24387 whole entry): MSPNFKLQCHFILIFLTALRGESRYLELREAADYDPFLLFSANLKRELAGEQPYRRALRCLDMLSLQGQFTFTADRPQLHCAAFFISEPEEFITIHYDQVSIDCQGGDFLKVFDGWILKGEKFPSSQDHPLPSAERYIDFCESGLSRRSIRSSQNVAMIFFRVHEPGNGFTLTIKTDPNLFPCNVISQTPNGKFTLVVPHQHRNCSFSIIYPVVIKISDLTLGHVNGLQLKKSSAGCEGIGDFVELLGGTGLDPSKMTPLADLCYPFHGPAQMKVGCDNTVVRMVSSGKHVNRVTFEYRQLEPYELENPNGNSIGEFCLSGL
As to the kind of experiment: activators of CRF receptor 2 with binding protein – uHTS hits, confirmation (AID 602473). The format is functional. The following applies: read-out: EC50_Mean.

Experiment [4] concerns the target T1, Corticotropin-releasing factor receptor 2/Corticotropin-releasing factor-binding protein. The experiment in a line: Dose Response confirmation of uHTS hits for small molecule antagonists of the CRF-binding protein and CRF-R2 receptor complex. The format is functional. The following applies: read-out: IC50_Mean.
Experiment [5] is described as follows: cytotoxicity in HEK-293T cells, dose response, cytotoxicity control for BCR NF-kB inhibitor project, luminescence, B-cell screen hits (AID 489021).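 Further: HEK-293T cells carrying an NF-kB luciferase reporter; cells exposed to compound for about 14 hours before viability readout.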 Type of experiment: functional, cell-based.
A short description of experiment [6]: HepG2 cell cytotoxicity, dose response, cytotoxicity control for Shn3 inhibitor project, CellTiter-Glo, cherry-picked (AID 624134). The format is functional, cell-based. On the technique in general: In ATP-based viability assays light output follows the ATP content of the culture.
Experiment [7] in a line: NIH-3T3 fibroblast cytotoxicity, dose response, cytotoxicity control, cell-based, fluorescence, Alamar Blue, secondary assay (AID 2327).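 Further: NIH-3T3 mouse fibroblasts cultured with fluconazole at 8 µg/mL.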 Type of experiment: functional.
Experiment [8] in a line: C. albicans growth with fluconazole, confirmation, fluorescence, retest (AID 2467). Type of experiment: functional, cell-based.
The next experiment deals with Galanin receptor type 2 (Homo sapiens, UniProt O43603). The experiment in a line: Dose Response cell-based high-throughput screening assay to identify antagonists of galanin receptor 2 (GALR2). [Related pubchem assays: 828, 866 ]. Type of experiment: functional.
The target of experiment [9] is COUP transcription factor 2 (Homo sapiens, UniProt P24468). As to the kind of experiment: Luminescence-based cell-based high throughput dose response assay to identify inhibitors of COUP-TFII (NR2F2). Type of experiment: functional.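 Further: HEK293 cells transiently cotransfected with COUP-TFII expression vector and reporter; luciferase reporter luminescence driven by COUP-TFII from the pX2-168 reporter plasmid.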
The nature of experiment [10]: control 3'UTR Renilla luciferase suppression, dose response, counter-screen for Shn3 inhibitor project, cell-based, Clone20-Shn3RL, cherry-picked (AID 624133). The format is functional. A general note: Counterscreens check selectivity or assay interference.
A short description of experiment [11]: Shn3 3'UTR reporter inhibitors, dose response, cell-based, Clone20 osteoblasts, firefly luciferase, cherry-picked (AID 624132).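 Further: firefly luciferase luminescence from reporter carrying the Shn3 3'UTR in osteoblasts.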 The format is functional.
Another experiment concerns INS1. As to the kind of experiment: beta cell apoptosis inhibitors, cytokine rescue, dose response, luminescence, retest (AID 449756).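 Further: cell death triggered by IL-1 beta plus TNF-alpha plus IFN-gamma mixture; protective hits raise ATP signal compared with cytokine alone wells.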 Type of experiment: functional, cell-based. The following applies: Rattus norvegicus.
A further experiment deals with H4. As to the kind of experiment: Luminescence Cell-Based Dose Response HTS to Identify Activators of 5'UTR Stem-Loop Driven Prion Protein mRNA Translation in H4 Neuroglioblastoma Cells. [Related pubchem assays: 1829 (Project Summary), 1814 (Primary HTS)]. Type of experiment: functional. The following applies: Homo sapiens.
Experiment [12] can be described thus: Luminescence Cell-Based Dose Response HTS to Identify Activators of Luciferase Translation or Activity in H4 […] Cells. [Related pubchem assays: 1829 (Project Summary), 1814 (Primary HTS)]. Type of experiment: functional.
A short description of experiment [13]: Luminescence Cell-Based Dose Confirmation HTS to Identify Activators of 5'UTR Stem-Loop Driven Alpha-Synuclein mRNA Translation in H4 Neuroglioblastoma Cells. [Related pubchem assays: 1829 (Project Summary), 1814 (Primary HTS)]. Type of experiment: functional.
A short description of experiment [14]: cytotoxicity in MIN6 insulinoma cells, dose response, cytotoxicity control, cell-based, mouse insulinoma (AID 2122).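 Further: confirmatory high-throughput counterscreen run to flag cytotoxic compounds; mouse MIN-6 beta cells carrying an insulin promoter eGFP reporter.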 The format is functional.
Experiment [15] can be described thus: insulin promoter down-regulators in MIN6 cells, imaging, high-content screening, mouse beta cells (AID 1628). Type of experiment: functional.
The target in experiment [16] is Protein-tyrosine kinase 2-beta (Homo sapiens, UniProt Q14289).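 Further: potency of inhibitors of PYK2 kinase phosphorylation of poly-GT substrate.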
Another experiment concerns the target Estrogen receptor beta (Homo sapiens, UniProt Q92731).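 Further: recombinant ER-beta bound to coactivator SRC1 peptide in presence of estradiol agonist; inhibitors block coactivator peptide binding and lower the FRET signal.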
The target in the next experiment is Cytochrome P450 2C19 (Homo sapiens, UniProt P33261). The experiment in a line: qHTS Assay for Inhibitors and Substrates of Cytochrome P450 2C19. [Related pubchem assays: 410 ]. Type of experiment: ADME. The following applies: read-out: Potency. For orientation: Quantitative high-throughput screening tests each substance at several concentrations.
Chain of Cytochrome P450 2C19 (P33261 whole entry): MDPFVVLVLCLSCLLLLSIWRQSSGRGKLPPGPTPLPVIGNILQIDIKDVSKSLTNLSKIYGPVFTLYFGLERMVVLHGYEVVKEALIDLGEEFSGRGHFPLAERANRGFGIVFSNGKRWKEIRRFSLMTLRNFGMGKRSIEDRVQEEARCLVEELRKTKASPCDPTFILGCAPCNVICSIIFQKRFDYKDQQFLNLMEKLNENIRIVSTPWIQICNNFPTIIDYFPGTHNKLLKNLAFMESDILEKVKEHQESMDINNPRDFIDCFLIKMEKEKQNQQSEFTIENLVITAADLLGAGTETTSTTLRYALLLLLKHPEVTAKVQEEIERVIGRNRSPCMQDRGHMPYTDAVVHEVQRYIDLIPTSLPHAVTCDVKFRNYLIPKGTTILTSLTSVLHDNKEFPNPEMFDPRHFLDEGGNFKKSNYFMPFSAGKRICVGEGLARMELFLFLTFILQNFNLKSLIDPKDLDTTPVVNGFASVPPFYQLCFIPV

Chain of Sphingosine 1-phosphate receptor 2 (O95136 whole entry): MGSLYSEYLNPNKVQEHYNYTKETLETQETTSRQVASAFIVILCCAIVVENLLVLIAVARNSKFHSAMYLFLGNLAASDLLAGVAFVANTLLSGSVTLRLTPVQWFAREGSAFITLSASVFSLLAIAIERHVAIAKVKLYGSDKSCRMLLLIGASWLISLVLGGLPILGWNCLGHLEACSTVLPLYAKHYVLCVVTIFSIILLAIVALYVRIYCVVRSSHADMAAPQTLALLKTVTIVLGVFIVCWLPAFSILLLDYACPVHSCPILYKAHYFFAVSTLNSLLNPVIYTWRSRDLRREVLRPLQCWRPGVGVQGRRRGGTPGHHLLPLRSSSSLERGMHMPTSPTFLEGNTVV
Chain of Galanin receptor type 2 (O43603 whole entry): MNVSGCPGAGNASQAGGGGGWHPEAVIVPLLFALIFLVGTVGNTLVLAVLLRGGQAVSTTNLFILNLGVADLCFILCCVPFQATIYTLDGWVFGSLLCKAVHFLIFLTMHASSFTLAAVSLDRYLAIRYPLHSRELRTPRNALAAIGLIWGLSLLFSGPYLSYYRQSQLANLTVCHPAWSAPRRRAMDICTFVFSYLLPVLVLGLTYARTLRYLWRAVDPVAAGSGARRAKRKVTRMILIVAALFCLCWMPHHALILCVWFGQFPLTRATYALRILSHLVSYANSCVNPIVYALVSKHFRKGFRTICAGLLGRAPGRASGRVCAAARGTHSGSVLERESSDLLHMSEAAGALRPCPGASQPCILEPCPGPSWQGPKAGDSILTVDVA
Chain of Estrogen receptor beta (Q92731 whole entry): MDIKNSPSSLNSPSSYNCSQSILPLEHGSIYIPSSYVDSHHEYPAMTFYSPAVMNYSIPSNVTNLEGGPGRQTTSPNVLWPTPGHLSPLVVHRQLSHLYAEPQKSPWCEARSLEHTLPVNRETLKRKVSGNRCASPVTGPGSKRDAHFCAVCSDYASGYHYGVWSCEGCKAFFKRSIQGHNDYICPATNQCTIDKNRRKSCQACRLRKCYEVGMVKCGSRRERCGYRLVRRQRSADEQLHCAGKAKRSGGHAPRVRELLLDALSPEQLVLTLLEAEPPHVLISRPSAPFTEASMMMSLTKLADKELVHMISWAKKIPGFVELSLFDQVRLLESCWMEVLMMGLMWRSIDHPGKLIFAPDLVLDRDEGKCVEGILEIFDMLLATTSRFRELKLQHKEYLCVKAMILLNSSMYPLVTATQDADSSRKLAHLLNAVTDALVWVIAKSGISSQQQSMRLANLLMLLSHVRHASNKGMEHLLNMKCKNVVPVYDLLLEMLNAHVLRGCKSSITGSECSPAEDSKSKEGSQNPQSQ
Chain of COUP transcription factor 2 (P24468 whole entry): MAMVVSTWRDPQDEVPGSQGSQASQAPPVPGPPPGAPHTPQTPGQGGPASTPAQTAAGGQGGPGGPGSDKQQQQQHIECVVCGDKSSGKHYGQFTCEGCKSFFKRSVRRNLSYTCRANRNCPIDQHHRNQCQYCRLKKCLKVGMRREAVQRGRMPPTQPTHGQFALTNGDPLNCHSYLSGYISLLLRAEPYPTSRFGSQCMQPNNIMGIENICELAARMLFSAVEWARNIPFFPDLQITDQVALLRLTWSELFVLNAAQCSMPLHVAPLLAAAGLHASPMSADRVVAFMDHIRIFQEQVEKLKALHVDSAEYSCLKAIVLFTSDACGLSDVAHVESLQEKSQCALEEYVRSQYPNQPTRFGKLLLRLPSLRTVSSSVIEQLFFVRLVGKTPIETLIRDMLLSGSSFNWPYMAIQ
Chain of Protein-tyrosine kinase 2-beta (Q14289 whole entry): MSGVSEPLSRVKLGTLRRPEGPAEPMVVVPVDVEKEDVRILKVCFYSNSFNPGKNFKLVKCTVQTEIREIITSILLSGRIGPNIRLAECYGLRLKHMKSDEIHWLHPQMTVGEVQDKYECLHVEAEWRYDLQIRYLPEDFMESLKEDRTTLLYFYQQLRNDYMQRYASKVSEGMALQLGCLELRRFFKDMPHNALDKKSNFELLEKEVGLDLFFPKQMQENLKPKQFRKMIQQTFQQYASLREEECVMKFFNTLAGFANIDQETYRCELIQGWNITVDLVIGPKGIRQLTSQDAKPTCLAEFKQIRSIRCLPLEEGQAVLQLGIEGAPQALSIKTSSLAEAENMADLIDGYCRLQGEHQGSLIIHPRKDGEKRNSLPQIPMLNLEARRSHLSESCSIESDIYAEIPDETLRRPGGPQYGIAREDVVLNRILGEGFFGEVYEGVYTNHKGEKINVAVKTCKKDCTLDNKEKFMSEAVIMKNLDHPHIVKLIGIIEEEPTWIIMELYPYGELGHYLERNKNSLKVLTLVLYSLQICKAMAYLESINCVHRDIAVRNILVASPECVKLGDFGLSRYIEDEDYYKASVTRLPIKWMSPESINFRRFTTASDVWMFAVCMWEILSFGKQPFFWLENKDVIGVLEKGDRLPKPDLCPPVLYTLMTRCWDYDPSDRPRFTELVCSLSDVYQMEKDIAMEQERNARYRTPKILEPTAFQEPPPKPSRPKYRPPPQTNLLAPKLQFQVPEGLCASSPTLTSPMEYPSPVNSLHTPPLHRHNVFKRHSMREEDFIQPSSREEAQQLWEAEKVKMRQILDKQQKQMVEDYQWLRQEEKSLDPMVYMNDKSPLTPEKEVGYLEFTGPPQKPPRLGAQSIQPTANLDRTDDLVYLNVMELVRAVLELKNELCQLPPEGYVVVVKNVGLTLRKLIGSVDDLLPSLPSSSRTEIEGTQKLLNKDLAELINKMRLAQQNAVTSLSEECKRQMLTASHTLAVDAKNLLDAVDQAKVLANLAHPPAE

In the case of `Cc1cc(C(=O)CN2C(=O)NC(Cc3ccccc3)C2=O)c(C)n1Cc1cccs1` (stereo unspecified), the EC50 in [1] was > 30 µM (not active).
As for `O=C(NCCOc1ccccc1F)c1ccccc1SCc1ccc(F)cc1`, the figures for the IC50 in [2] and in experiment [4] were 2.2 µM (active) and > 47.1 µM (inactive), respectively. In addition, the EC50 in experiment [3] was > 53 µM (inactive).
As for `Cc1ccc(S(=O)(=O)CC2CSc3nc4ccccc4n32)cc1` (stereo unspecified), the IC50 in experiment [5] is > 80 µM (inactive); against Galanin receptor type 2, > 42 µM (not active); in [9], 4.21 µM (active). Moreover, the AC50 in experiment [6] was 0.592 µM (active); in [10] it was 24.4 µM (active); in [11], 0.347 µM (active); in the experiment with INS1, 3.55 µM (active). Moreover, the EC50 in experiment [7] was > 160 µM (inactive); in experiment [8], 1.15 µM (active).
In the case of `Cc1ccc2[nH]c3c(NCc4ccco4)ncnc3c2c1`, the results for the EC50 (with H4; in experiment [12]; in experiment [13]) were 17.8 µM (active), 20.1 µM (active) and 29.1 µM (active), respectively. The IC50 in experiment [14] was 2.95 µM (active); in experiment [15], 2.53 µM (active); in [16], > 69.5 µM (not active).
On to `CCCCCCN/C=C1\C(=O)CC(C)(C)C(C(=O)OC)C1=O` (stereo unspecified), for which the IC50 at Estrogen receptor beta is > 50 µM (not active).
On to `CCCn1c(=O)[nH]c2nc(-c3ccc(S(=O)(=O)O)cc3)[nH]c2c1=O`, for which the AC50 at Cytochrome P450 2C19 is 7.94 µM (inconclusive).
